Assay results taken from patent US20060069132A1, “Azolecarboxamide herbicides” (priority 2004, published 2006).
Like-named read-outs stand apart in the source and are kept apart here.

Tests used:
[1] = system: smallflower umbrella sedge; test: Test C flooded paddy test; assay type: in vivo, Cyperus difformis; settings: Cyperus difformis
large crabgrass = test: Test A pre-/postemergence herbicide test; assay type: in vivo, Digitaria sanguinalis; settings: Digitaria sanguinalis, 240 h; for pest or weed control at 500 g/ha: 500 g ai/ha; for pest or weed control at 2000 g/ha: 2000 g ai/ha
Summary of the method: (§1)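 Greenhouse injury scoring (0–100, complete control = 100) at approximately ten days follows simultaneous pre- and postemergence application. Soil received a directed spray after seeding; seedlings of 2–10 cm at the one- to two-leaf stage were sprayed to runoff.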

lambsquarters [2] = test: Test C pre-/postemergence herbicide test; assay type: in vivo, Chenopodium album
Summary of the method: (§2)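 Pre/post spray; non-phytotoxic solvent + surfactant. Post-timing 1–4 leaves, 2–18 cm. Read-out: visual % control vs untreated, day 12–14, greenhouse.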

giant foxtail = test: Test A pre-/postemergence herbicide test; assay type: in vivo, Setaria faberi; settings: Setaria faberi, 240 h; for pest or weed control at 500 g/ha: 500 g ai/ha; for pest or weed control at 2000 g/ha: 2000 g ai/ha
Summary of the method: as §1

lambsquarters [3] = test: Test B pre-/postemergence herbicide test; assay type: in vivo, Chenopodium album; settings: Chenopodium album, 336 h; for pest or weed control at 500 g/ha: 500 g ai/ha; for pest or weed control at 125 g/ha: 125 g ai/ha
Summary of the method: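 Formulation: non-phytotoxic solvent mix with surfactant. Timing: preemergence on seed and postemergence on 2–18 cm plants, applied concurrently. Readout after 13–15 d greenhouse: visual 0–100 control rating against controls.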

[4] = system: common (oilseed) sunflower; test: Test C pre-/postemergence herbicide test; assay type: in vivo, Helianthus annuus
Summary of the method: as §2

morningglory = test: Test A pre-/postemergence herbicide test; assay type: in vivo, Ipomoea spp.; settings: Ipomoea, 240 h; for pest or weed control at 500 g/ha: 500 g ai/ha; for pest or weed control at 2000 g/ha: 2000 g ai/ha
Summary of the method: as §1

johnsongrass = test: Test C pre-/postemergence herbicide test; assay type: in vivo, Sorghum halepense
Summary of the method: as §2

[5] = post-emergence, Postemergence, 0 to 100 scale, 0 no effect, 100 complete control, read-out: Plant response rating, Crabgrass, Large
[6] = Preemergence, 500 g ai/ha, scale 0 to 100, 0 no effect, 100 complete control
[7] = post-emergence, Postemergence, 0 to 100 scale, 0 no effect, 100 complete control, read-out: Plant response rating, Foxtail, Giant
[8] = post-emergence, Postemergence, 0 to 100 scale, 0 no effect, 100 complete control, read-out: Plant response rating, Morningglory

Compound: CCn1nc(C(C)(C)C)cc1C(=O)Nc1cccc2c1CN(C)C2=O [Compound 55, N-(2,3-dihydro-2-methyl-1-oxo-1H-isoindol-4-yl)-3-(1,1-dimethylethyl)-1-ethyl-1H-pyrazole-5-carboxamide]
- pest or weed control at 62 g/ha ([1]; 62 g ai/ha, scale 0 to 100 (0 no effect, 100 complete control), read-out: Sedge, Umbrella plant response rating): 0%
- pest or weed control at 125 g/ha ([1]; 125 g ai/ha, scale of 0 to 100, 0 is no effect, 100 is complete control, read-out: Sedge, Umbrella plant response rating): 20%
- pest or weed control at 250 g/ha ([1]; 250 g ai/ha, scale of 0 to 100, 0 is no effect, 100 is complete control, read-out: Sedge, Umbrella plant response rating): 75%
- pest or weed control at 500 g/ha ([1]; 500 g ai/ha, visual rating after 12 to 14 days, scale 0 to 100 (0 no effect, 100 complete control), read-out: Plant response rating, Sedge, Umbrella): 80%
- pest or weed control at 500 g/ha (large crabgrass; [5]): 25%
- pest or weed control at 2000 g/ha (large crabgrass; [5]): 100%
- pest or weed control at 500 g/ha (large crabgrass; pre-emergence, Preemergence, visual rating, 0 to 100 scale (0 no effect, 100 complete control), read-out: Crabgrass, Large plant response rating): 75%
- pest or weed control at 2000 g/ha (large crabgrass; pre-emergence, Preemergence, 0 to 100 scale, 0 no effect, 100 complete control, read-out: Crabgrass, Large plant response rating): 100%
- Plant response rating (0 = no effect, 100 = complete control), Lambsquarters (lambsquarters [2]; 62 g ai/ha, preemergence): 80
- pest or weed control at 125 g/ha (lambsquarters [2]; Chenopodium album, pre-emergence, 125 g ai/ha, scale 0 (no effect) to 100 (complete control), visual, 12 to 14 days, read-out: Plant response rating, Lambsquarters): 95%
- pest or weed control at 250 g/ha (lambsquarters [2]; Chenopodium album, pre-emergence, 250 g ai/ha, scale 0 to 100 (0 no effect, 100 complete control), visual, 12 to 14 days, read-out: Plant response rating, Lambsquarters): 100%
- Lambsquarters plant response rating (lambsquarters [2]; [6]): 100
- pest or weed control at 500 g/ha (giant foxtail; [7]): 30%
- pest or weed control at 2000 g/ha (giant foxtail; [7]): 80%
- pest or weed control at 500 g/ha (giant foxtail; pre-emergence, Preemergence, visual rating, 0 to 100 scale (0 no effect, 100 complete control), read-out: Foxtail, Giant plant response rating): 60%
- pest or weed control at 2000 g/ha (giant foxtail; pre-emergence, Preemergence, 0 to 100 scale, 0 no effect, 100 complete control, read-out: Foxtail, Giant plant response rating): 100%
- pest or weed control at 500 g/ha (lambsquarters [3]; post-emergence, Postemergence, visual rating after 13 to 15 days, scale 0 (no effect) to 100 (complete control), read-out: Plant response rating, Lambsquarters): 70%
- pest or weed control at 125 g/ha (lambsquarters [3]; post-emergence, postemergence, visual rating, scale 0 (no effect) to 100 (complete control), read-out: Lambsquarters plant response rating): 70%
- pest or weed control at 500 g/ha (lambsquarters [3]; pre-emergence, Preemergence, scale 0 to 100, read-out: Lambsquarters plant response rating): 100%
- pest or weed control at 125 g/ha (lambsquarters [3]; pre-emergence, preemergence, 0 to 100 scale, 0 is no effect, 100 is complete control, read-out: Plant response rating, Lambsquarters): 70%
- Plant response rating (0 = no effect, 100 = complete control), Sunflower ([4]; 62 g ai/ha, preemergence): 0
- pest or weed control at 125 g/ha ([4]; Helianthus annuus, pre-emergence, 125 g ai/ha, scale 0 (no effect) to 100 (complete control), visual, 12 to 14 days, read-out: Plant response rating, Sunflower): 0%
- pest or weed control at 250 g/ha ([4]; Helianthus annuus, pre-emergence, 250 g ai/ha, scale 0 to 100 (0 no effect, 100 complete control), visual, 12 to 14 days, read-out: Plant response rating, Sunflower): 0%
- Sunflower plant response rating [4, 6]: 0
- pest or weed control at 500 g/ha (morningglory; [8]): 20%
- pest or weed control at 2000 g/ha (morningglory; [8]): 25%
- pest or weed control at 500 g/ha (morningglory; pre-emergence, Preemergence, visual rating, 0 to 100 scale (0 no effect, 100 complete control), read-out: Morningglory plant response rating): 5%
- pest or weed control at 2000 g/ha (morningglory; pre-emergence, Preemergence, 0 to 100 scale, 0 no effect, 100 complete control, read-out: Morningglory plant response rating): 20%
- Plant response rating (0 = no effect, 100 = complete control), Johnsongrass (johnsongrass; 62 g ai/ha, preemergence): 0
- Johnsongrass plant response rating (johnsongrass; [6]): 100
- pest or weed control at 125 g/ha (johnsongrass; Sorghum halepense, pre-emergence, 125 g ai/ha, scale 0 (no effect) to 100 (complete control), visual, 12 to 14 days, read-out: Plant response rating, Johnsongrass): 75%
- pest or weed control at 250 g/ha (johnsongrass; Sorghum halepense, pre-emergence, 250 g ai/ha, scale 0 to 100 (0 no effect, 100 complete control), visual, 12 to 14 days, read-out: Plant response rating, Johnsongrass): 95%
